Reference: the supplement of paper PMC10307832

What follows are cell lines tested with Cc1ccc2nc(NCCN)c3ncc(C)n3c2c1 + COc1cccc2cc(-c3nc([C@H]4CC[C@H](C(=O)O)CC4)n4ncnc(N)c34)[nH]c12 [OSI-027] (partner 0.5 µM) (assay: relative viability (nuclei count vs DMSO), 5 days (fraction); higher = more cells survive). Conditions: first compound 4 µM.
In short: (§1)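 Relative viability was taken as the ratio of nuclei in treated wells to nuclei in vehicle wells. Lung cancer cell lines in 1536-well plates received compounds by pin tool one day after seeding, either one drug alone or a fixed anchor-drug dose plus five library-drug doses (not always all listed) in √10 steps. Nuclei were counted on 4× images after 5 days of treatment, and values are medians of duplicate plates.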
BEN gave a relative viability of 0.324. For NCI-H1623, the relative viability was 0.425. In the case of NCI-H1563, the relative viability was 0.728. For NCI-H1648, the relative viability was 0.233.

Each cell line was assayed with O=C(/C=C/c1ccccc1)NC(NC(=S)Nc1cccc2cccnc12)C(Cl)(Cl)Cl [Salubrinal] + N=C(N)NC(=N)NCCc1ccccc1 [Phenformin] (partner 250 µM) in the same assay as above. Conditions: first compound 0.08 µM.
In short: as §1
Work on NCI-H522 yielded a relative viability of 0.723. With NCI-H2342 the relative viability was 0.497. In the case of NCI-H727, the relative viability was 0.41. Work on NCI-H1650 yielded a relative viability of 0.497. In the case of NCI-H1993, the relative viability was 0.464. In the case of SW 1573, the relative viability was 0.388. NCI-H838 showed a relative viability of 0.657. With LCLC-103H the relative viability was 0.388. With NCI-H520 the relative viability was 0.56. In the case of NCI-H2126, the relative viability was 0.512. EMC-BAC-2 gave a relative viability of 0.471. Work on NCI-H2085 yielded a relative viability of 0.68. Work on HCC-366 yielded a relative viability of 0.685. In the case of NCI-H1666, the relative viability was 0.535. Cell Line NCI-H596 has a relative viability of 0.98. In the case of LK-2, the relative viability was 0.502. NCI-H2087 was tested, and the relative viability was 0.472. For NCI-H358, the relative viability was 0.365. For NCI-H2170, the relative viability was 0.468. With H3255 the relative viability was 0.364. COR-L23 gave a relative viability of 0.526. With COR-L 105 the relative viability was 0.556. LOU-NH91 showed a relative viability of 0.813. For ChaGo-K-1, the relative viability was 0.506. In the case of NCI-H1793, the relative viability was 0.446. For NCI-H2405, the relative viability was 0.42. With HOP-62 the relative viability was 0.85. HCC-44 gave a relative viability of 0.193. In the case of A549, the relative viability was 0.174. For SK-MES-1, the relative viability was 0.703. In the case of LU99A, the relative viability was 0.921. BEN gave a relative viability of 0.269. NCI-H1623 showed a relative viability of 0.522. Cell Line NCI-H1563 has a relative viability of 0.71.

Same assay, conditions: first compound 0.253 µM
NCI-H522 was tested, and the relative viability was 0.662. NCI-H2342 gave a relative viability of 0.564. With NCI-H727 the relative viability was 0.461. NCI-H1650 gave a relative viability of 0.462. In the case of NCI-H1993, the relative viability was 0.545. SW 1573 was tested, and the relative viability was 0.327. Cell Line NCI-H838 has a relative viability of 0.379. In the case of LCLC-103H, the relative viability was 0.282. With NCI-H520 the relative viability was 0.556. NCI-H2126 showed a relative viability of 0.537. With EMC-BAC-2 the relative viability was 0.326. NCI-H2085 showed a relative viability of 0.634. Work on HCC-366 yielded a relative viability of 0.579. Cell Line NCI-H1666 has a relative viability of 0.603. NCI-H596 was tested, and the relative viability was 0.703. For LK-2, the relative viability was 0.466. In the case of NCI-H2087, the relative viability was 0.361. NCI-H358 gave a relative viability of 0.27. For NCI-H2170, the relative viability was 0.423. H3255 gave a relative viability of 0.349. Cell Line COR-L23 has a relative viability of 0.359. COR-L 105 was tested, and the relative viability was 0.479. For LOU-NH91, the relative viability was 0.693. With ChaGo-K-1 the relative viability was 0.461. NCI-H1793 showed a relative viability of 0.349. NCI-H2405 showed a relative viability of 0.387. HOP-62 was tested, and the relative viability was 0.491. In the case of HCC-44, the relative viability was 0.212. For A549, the relative viability was 0.143. With SK-MES-1 the relative viability was 0.64. Work on LU99A yielded a relative viability of 0.916. BEN gave a relative viability of 0.259. For NCI-H1623, the relative viability was 0.564. In the case of NCI-H1563, the relative viability was 0.617.

Same assay, conditions: first compound 0.8 µM
NCI-H522 gave a relative viability of 0.714. NCI-H2342 gave a relative viability of 0.618. In the case of NCI-H727, the relative viability was 0.491. For NCI-H1650, the relative viability was 0.423. NCI-H1993 gave a relative viability of 0.506. Cell Line SW 1573 has a relative viability of 0.389. Cell Line NCI-H838 has a relative viability of 0.695. Work on LCLC-103H yielded a relative viability of 0.318. In the case of NCI-H520, the relative viability was 0.831. NCI-H2126 showed a relative viability of 0.562. Cell Line EMC-BAC-2 has a relative viability of 0.601. Cell Line NCI-H2085 has a relative viability of 0.682. Work on HCC-366 yielded a relative viability of 0.645. Cell Line NCI-H1666 has a relative viability of 0.561. Work on NCI-H596 yielded a relative viability of 0.68. Cell Line LK-2 has a relative viability of 0.675. Cell Line NCI-H2087 has a relative viability of 0.527. NCI-H358 was tested, and the relative viability was 0.36. In the case of NCI-H2170, the relative viability was 0.241. Cell Line H3255 has a relative viability of 0.44. In the case of COR-L23, the relative viability was 0.458. For COR-L 105, the relative viability was 0.452. Work on LOU-NH91 yielded a relative viability of 0.739. ChaGo-K-1 showed a relative viability of 0.535. NCI-H1793 showed a relative viability of 0.391. Cell Line NCI-H2405 has a relative viability of 0.441. HOP-62 was tested, and the relative viability was 0.799. For HCC-44, the relative viability was 0.391. In the case of A549, the relative viability was 0.175. SK-MES-1 gave a relative viability of 0.668. In the case of LU99A, the relative viability was 0.992. BEN was tested, and the relative viability was 0.432. For NCI-H1623, the relative viability was 0.61. Cell Line NCI-H1563 has a relative viability of 0.647.

Same assay, conditions: first compound 2.53 µM
For NCI-H522, the relative viability was 0.615. With NCI-H2342 the relative viability was 0.635. With NCI-H727 the relative viability was 0.504. Cell Line NCI-H1650 has a relative viability of 0.423. Work on NCI-H1993 yielded a relative viability of 0.503. SW 1573 was tested, and the relative viability was 0.332. With NCI-H838 the relative viability was 0.602. Work on LCLC-103H yielded a relative viability of 0.38. In the case of NCI-H520, the relative viability was 0.646. NCI-H2126 gave a relative viability of 0.563. For EMC-BAC-2, the relative viability was 0.513. For NCI-H2085, the relative viability was 0.749. Work on HCC-366 yielded a relative viability of 0.642. Cell Line NCI-H1666 has a relative viability of 0.547. NCI-H596 showed a relative viability of 0.757. With LK-2 the relative viability was 0.3. For NCI-H2087, the relative viability was 0.471. NCI-H358 was tested, and the relative viability was 0.319. For NCI-H2170, the relative viability was 0.403. For H3255, the relative viability was 0.386. COR-L23 gave a relative viability of 0.422. With COR-L 105 the relative viability was 0.511. LOU-NH91 gave a relative viability of 0.583. Cell Line ChaGo-K-1 has a relative viability of 0.455. NCI-H1793 gave a relative viability of 0.394. NCI-H2405 was tested, and the relative viability was 0.329. For HOP-62, the relative viability was 0.702. HCC-44 was tested, and the relative viability was 0.364. Cell Line A549 has a relative viability of 0.119. In the case of SK-MES-1, the relative viability was 0.672. In the case of LU99A, the relative viability was 0.906. BEN showed a relative viability of 0.273. For NCI-H1623, the relative viability was 0.578. NCI-H1563 showed a relative viability of 0.635.

Same assay, conditions: first compound 8 µM
NCI-H522 gave a relative viability of 0.605. Work on NCI-H2342 yielded a relative viability of 0.572. Cell Line NCI-H727 has a relative viability of 0.688. NCI-H1650 gave a relative viability of 0.422. In the case of NCI-H1993, the relative viability was 0.509. Cell Line SW 1573 has a relative viability of 0.299. NCI-H838 was tested, and the relative viability was 0.622. For LCLC-103H, the relative viability was 0.308. Cell Line NCI-H520 has a relative viability of 0.54. Work on NCI-H2126 yielded a relative viability of 0.519. EMC-BAC-2 showed a relative viability of 0.493. NCI-H2085 gave a relative viability of 0.665. HCC-366 showed a relative viability of 0.646. In the case of NCI-H1666, the relative viability was 0.514. NCI-H596 showed a relative viability of 0.704. With LK-2 the relative viability was 0.395. Work on NCI-H2087 yielded a relative viability of 0.476. NCI-H358 gave a relative viability of 0.278. NCI-H2170 gave a relative viability of 0.373. Work on H3255 yielded a relative viability of 0.335. Cell Line COR-L23 has a relative viability of 0.433. For COR-L 105, the relative viability was 0.42. For LOU-NH91, the relative viability was 0.663. For ChaGo-K-1, the relative viability was 0.45. For NCI-H1793, the relative viability was 0.33.
